Test results: US20120115724A1, “METHOD OF CONTROLLING UNDESIRED VEGETATION” (SYNGENTA CROP PROTECTION LLC, priority 2009, published 2012)

Assays:
Format in all cases: in vivo
[1] = test system: AMARE Amaranthus retroflexus; assay: Pre-emergence crop and weed test (Example 16); details: after 20 days
Experimental: (§1) Seeds of crop and representative weed species were sown in standard soil in pots. After cultivation for 1 day under controlled conditions in a glasshouse (at 22/16° C., day/night; 16 hours light; 65% humidity), the plants were sprayed. The spray solution was prepared by dissolving the technical active ingredient in acetone containing 10.56 wt % Emulsogen EL, 42.22 wt % N-methylpyrrolidone and 2.22 wt % DPG-monoethyl ether to give a 5% stock solution. This was then diluted with water containing 0.2% (v/v) of the adjuvant X-77 to give the desired treatment concentration.
(§2) The test plants were then grown on under controlled conditions in a glasshouse (at 22/16° C., day/night; 16 hours light; 65% humidity) and watered twice daily. After 20 days the test was evaluated (100=total damage to plant; 0=no damage to plant).
(§3) Species as for Post-Emergence Test.

[2] = test system: EPHHL Euphorbia heterophylla; assay: Pre-emergence crop and weed test (Example 16); details: after 20 days
Experimental: as §1, §2, §3

[3] = test system: POLCO Polygonum convolvulus; assay: Pre-emergence crop and weed test (Example 16); details: after 20 days
Experimental: as §1, §2, §3

[4] = test system: ABUTH Abutilon theophrasti; assay: Pre-emergence crop and weed test (Example 16); details: after 20 days
Experimental: as §1, §2, §3

IPOHE Ipomoea hederacea [5] = assay: Pre-emergence crop and weed test (Example 16); details: after 20 days
Experimental: as §1, §2, §3

[6] = test system: XANST Xanthium strumarium; assay: Pre-emergence crop and weed test (Example 16); details: after 20 days
Experimental: as §1, §2, §3

GLXMA Soybean [7] = assay: Pre-emergence crop and weed test (Example 16); details: after 20 days
Experimental: as §1, §2, §3

SIDSP Sida spinosa [8] = assay: Pre-emergence crop and weed test (Example 16); details: after 20 days
Experimental: as §1, §2, §3

GALAP Galium aparine [9] = assay: Pre-emergence crop and weed test (Example 16); details: after 20 days
Experimental: as §1, §2, §3

KCHSC Kochia scoparia [10] = assay: Pre-emergence crop and weed test (Example 16); details: after 20 days
Experimental: as §1, §2, §3

CHEAL Chenopodium album [11] = assay: Pre-emergence crop and weed test (Example 16); details: after 20 days
Experimental: as §1, §2, §3

SINAR Sinapis arvensis [12] = assay: Pre-emergence crop and weed test (Example 16); details: after 20 days
Experimental: as §1, §2, §3

[13] = test system: AMARE Amaranthus retroflexus; assay: Post-emergence crop and weed test (Example 15); details: 360 h, after 15 days, read-out: Percentage damage AMARE
In short: (§4)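 Scoring: percent damage at 15 days after treatment, where 100 means total damage and 0 no damage. Treatment was a foliar spray of 14-day-old potted plants, using active ingredient diluted from a 5% acetone-based emulsifiable stock into water containing 0.2% X-77 adjuvant.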

[14] = test system: EPHHL Euphorbia heterophylla; assay: Post-emergence crop and weed test (Example 15); details: 360 h, after 15 days, read-out: Percentage damage EPHHL
In short: as §4

[15] = test system: POLCO Polygonum convolvulus; assay: Post-emergence crop and weed test (Example 15); details: Fallopia convolvulus, 360 h, after 15 days, read-out: Percentage damage POLCO
In short: as §4

[16] = test system: ABUTH Abutilon theophrasti; assay: Post-emergence crop and weed test (Example 15); details: 360 h, after 15 days, read-out: Percentage damage ABUTH
In short: as §4

IPOHE Ipomoea hederacea [17] = assay: Post-emergence crop and weed test (Example 15); details: 360 h, after 15 days, read-out: Percentage damage IPOHE
In short: as §4

VERPE Veronica persica = assay: Post-emergence crop and weed test (Example 15); details: 360 h, after 15 days, read-out: Percentage damage VERPE
In short: as §4

[18] = test system: XANST Xanthium strumarium; assay: Post-emergence crop and weed test (Example 15); details: 360 h, after 15 days, read-out: Percentage damage XANST
In short: as §4

GLXMA Soybean [19] = assay: Post-emergence crop and weed test (Example 15); details: Glycine max, 360 h, after 15 days, read-out: Percentage damage GLXMA
In short: as §4

SIDSP Sida spinosa [20] = assay: Post-emergence crop and weed test (Example 15); details: 360 h, after 15 days, read-out: Percentage damage SIDSP
In short: as §4

GALAP Galium aparine [21] = assay: Post-emergence crop and weed test (Example 15); details: 360 h, after 15 days, read-out: Percentage damage GALAP
In short: as §4

KCHSC Kochia scoparia [22] = assay: Post-emergence crop and weed test (Example 15); details: Bassia scoparia, 360 h, after 15 days, read-out: Percentage damage KCHSC
In short: as §4

CHEAL Chenopodium album [23] = assay: Post-emergence crop and weed test (Example 15); details: 360 h, after 15 days, read-out: Percentage damage CHEAL
In short: as §4

SINAR Sinapis arvensis [24] = assay: Post-emergence crop and weed test (Example 15); details: Mutarda arvensis, 360 h, after 15 days, read-out: Percentage damage SINAR
In short: as §4

Structure (SMILES): COC(=O)c1nc(-c2ccc(Cl)c(OC)c2F)nc(NCc2ccco2)c1Cl [Ref. Ex. E, 5-Chloro-2-(4-chloro-2-fluoro-3-methoxyphenyl)-4-(furan-2-ylmethylamino)-6-methoxycarbonyl-pyrimidine, reference compound]
- Percentage damage AMARE ([1]; 125 g/ha): 70%
- Percentage damage EPHHL ([2]; 125 g/ha): 100%
- Percentage damage POLCO ([3]; 125 g/ha): 0%
- Percentage damage ABUTH ([4]; 125 g/ha): 40%
- Percentage damage IPOHE (IPOHE Ipomoea hederacea [5]; 125 g/ha): 30%
- Percentage damage XANST ([6]; 125 g/ha): 20%
- Percentage damage GLXMA (GLXMA Soybean [7]; 125 g/ha): 10%
- Percentage damage SIDSP (SIDSP Sida spinosa [8]; 125 g/ha): 70%
- Percentage damage GALAP (GALAP Galium aparine [9]; 125 g/ha): 90%
- Percentage damage KCHSC (KCHSC Kochia scoparia [10]; 125 g/ha): 60%
- Percentage damage CHEAL (CHEAL Chenopodium album [11]; 125 g/ha): 30%
- Percentage damage SINAR (SINAR Sinapis arvensis [12]; 125 g/ha): 70%
- pest or weed control at 125 g/ha ([13]; 125 g/ha): 100%
- pest or weed control at 125 g/ha ([14]; 125 g/ha): 100%
- pest or weed control at 125 g/ha ([15]; 125 g/ha): 90%
- pest or weed control at 125 g/ha ([16]; 125 g/ha): 100%
- pest or weed control at 125 g/ha (IPOHE Ipomoea hederacea [17]; 125 g/ha): 90%
- pest or weed control at 125 g/ha (VERPE Veronica persica; 125 g/ha): 10%
- pest or weed control at 125 g/ha ([18]; 125 g/ha): 100%
- plant injury at 125 g/ha (GLXMA Soybean [19]; 125 g/ha): 100%
- pest or weed control at 125 g/ha (SIDSP Sida spinosa [20]; 125 g/ha): 90%
- pest or weed control at 125 g/ha (GALAP Galium aparine [21]; 125 g/ha): 90%
- pest or weed control at 125 g/ha (KCHSC Kochia scoparia [22]; 125 g/ha): 90%
- pest or weed control at 125 g/ha (CHEAL Chenopodium album [23]; 125 g/ha): 90%
- pest or weed control at 125 g/ha (SINAR Sinapis arvensis [24]; 125 g/ha): 90%

Structure (SMILES): C=Cc1c(N)nc(-c2ccc(Cl)c(OC)c2F)nc1C(=O)OC [Compound 2, 4-Amino-2-(4-chloro-2-fluoro-3-methoxy-phenyl)-5-ethenyl-6-methoxy-carbonyl-pyrimidine]
- Percentage damage AMARE ([1]; 15 g/ha): 40%
- Percentage damage EPHHL ([2]; 15 g/ha): 100%
- Percentage damage POLCO ([3]; 15 g/ha): 20%
- Percentage damage ABUTH ([4]; 15 g/ha): 40%
- Percentage damage IPOHE (IPOHE Ipomoea hederacea [5]; 15 g/ha): 30%
- Percentage damage XANST ([6]; 15 g/ha): 0%
- Percentage damage GLXMA (GLXMA Soybean [7]; 15 g/ha): 20%
- Percentage damage SIDSP (SIDSP Sida spinosa [8]; 15 g/ha): 80%
- Percentage damage GALAP (GALAP Galium aparine [9]; 15 g/ha): 100%
- Percentage damage KCHSC (KCHSC Kochia scoparia [10]; 15 g/ha): 100%
- Percentage damage CHEAL (CHEAL Chenopodium album [11]; 15 g/ha): 70%
- Percentage damage SINAR (SINAR Sinapis arvensis [12]; 15 g/ha): 30%
- pest or weed control at 8 g/ha [13]: 80%
- pest or weed control at 8 g/ha [14]: 90%
- pest or weed control at 8 g/ha [15]: 70%
- pest or weed control at 8 g/ha [16]: 80%
- pest or weed control at 8 g/ha (IPOHE Ipomoea hederacea [17]): 90%
- pest or weed control at 8 g/ha [18]: 90%
- plant injury at 8 g/ha (GLXMA Soybean [19]): 60%
- pest or weed control at 8 g/ha (SIDSP Sida spinosa [20]): 80%
- pest or weed control at 8 g/ha (GALAP Galium aparine [21]; 8 g/ha): 80%
- pest or weed control at 8 g/ha (KCHSC Kochia scoparia [22]; 8 g/ha): 30%
- pest or weed control at 8 g/ha (SINAR Sinapis arvensis [24]): 10%

Structure (SMILES): COC(=O)c1nc(-c2ccc(Cl)c(OC)c2F)nc(N)c1Cl [Ref. Ex. B, 4-Amino-5-chloro-2-(4-chloro-2-fluoro-3-methoxyphenyl)-6-methoxycarbonyl-pyrimidine, reference compound]
- Percentage damage AMARE ([1]; 15 g/ha): 70%
- Percentage damage EPHHL ([2]; 15 g/ha): 80%
- Percentage damage POLCO ([3]; 15 g/ha): 0%
- Percentage damage ABUTH ([4]; 15 g/ha): 30%
- Percentage damage IPOHE (IPOHE Ipomoea hederacea [5]; 15 g/ha): 0%
- Percentage damage XANST ([6]; 15 g/ha): 0%
- Percentage damage GLXMA (GLXMA Soybean [7]; 15 g/ha): 90%
- Percentage damage SIDSP (SIDSP Sida spinosa [8]; 15 g/ha): 40%
- Percentage damage GALAP (GALAP Galium aparine [9]; 15 g/ha): 70%
- Percentage damage KCHSC (KCHSC Kochia scoparia [10]; 15 g/ha): 0%
- Percentage damage CHEAL (CHEAL Chenopodium album [11]; 15 g/ha): 30%
- Percentage damage SINAR (SINAR Sinapis arvensis [12]; 15 g/ha): 80%
- pest or weed control at 8 g/ha [13]: 100%
- pest or weed control at 8 g/ha [14]: 100%
- pest or weed control at 8 g/ha [15]: 80%
- pest or weed control at 8 g/ha [16]: 90%
- pest or weed control at 8 g/ha (IPOHE Ipomoea hederacea [17]): 80%
- pest or weed control at 8 g/ha (VERPE Veronica persica; 8 g/ha): 80%
- pest or weed control at 8 g/ha [18]: 100%
- plant injury at 8 g/ha (GLXMA Soybean [19]): 90%
- pest or weed control at 8 g/ha (SIDSP Sida spinosa [20]): 70%
- pest or weed control at 8 g/ha (CHEAL Chenopodium album [23]; 8 g/ha): 80%
- pest or weed control at 8 g/ha (SINAR Sinapis arvensis [24]): 80%
